Values quoted from earlier work as cited in patent US9763439B2, “Method of packaging food” (Universidad de Santiago de Chile, priority 2013, dated 2017).

Settings: thermoforming process (±140° C.) does not affect its stability

## C/C=C/C=C/C(=O)[O-].[K+] [potassium sorbate]
  temperature withstood: up to 270 °C
